# Values quoted from earlier work in patent publication US20050106263A1, “Green tea, multivitamin, mineral and herb based hair and male facial skin formulas” (priority 2003, published 2005).
# Tests used:
# [1] = in vivo
# hair loss = conditions: comparison drug, general statement
SMILES,oral bioavailability [1],effect on front hairline (hair loss),persistence of effect after use is stopped (hair loss)
"O=C(O[C@@H]1Cc2c(O)cc(O)cc2O[C@@H]1c1cc(O)c(O)c(O)c1)c1cc(O)c(O)c(O)c1 [EGCG, epigallocatchin-3-gallate]",low oral bioavailability,,
Nc1cc(N2CCCCC2)nc(N)[n+]1[O-] [Rogaine],,does not work well on the front hairline,must be continually used or its effects will not only cease but will reverse
